Assay: Effectiveness and irritation of lower octenidine concentration in gel formulation (statement in description)
Settings: concentration of 0.05% octenidine, compared with common 0.1%

CCCCCCCCN=c1ccn(CCCCCCCCCCn2ccc(=NCCCCCCCC)cc2)cc1 [octenidine, 1,1′-(1.1 O-decandiyl) to [4-(octylamino)pyridinium]-dichloride]
effectiveness: sufficiently good effectiveness
irritation: lower irritation

From patent US20140370067A1, “Method and applicator for the perioperative disinfection of medical instruments to be inserted through non-natural openings” (priority 2012, published 2014)
